Publication PMC7380166, “How to Study the Metabolism of New Psychoactive Substances for the Purpose of Toxicological Screenings—A Follow-Up Study Comparing Pooled Human Liver S9, HepaRG Cells, and Zebrafish Larvae” (Frontiers in Chemistry, 2020)

Key:
[1] = Authentic human urine sample after intake of 4F-MDMB-BINACA, LC-HRMS/MS; format: in vivo; conditions: one patient, unknown dose and time point of intake
Protocol: Human blood and urine collected after a suspected intake of drugs of abuse were submitted to the authors' laboratory for regular clinical toxicological analysis. The blood sample was centrifuged, and plasma was separated. The authors' standard liquid–liquid extraction for human plasma screening was used (Maurer et al., [2016]). Briefly, 1,000 μl of plasma was mixed with 100 μl of internal standard (0.01 μg/μl trimipramine-d3 in methanol) and extracted with 5,000 μl of a mixture of diethyl ether:ethyl acetate (1:1, v/v) after addition of 2,000 μl of saturated sodium sulfate solution. Phase separation was mediated by centrifugation. The organic layer was transferred into a flask and evaporated to dryness at 60°C under reduced pressure. The aqueous residue was then alkalized with 500 μl of 1 M sodium hydroxide and extracted a second time with 5,000 μl of the diethyl ether:ethyl acetate mixture. The organic extract was transferred to the same flask and evaporated as described before. The combined residues were dissolved in 100 μl of methanol and transferred into an autosampler vial, and 5 μl was injected onto the LC-HRMS/MS system. An aliquot of the human urine sample (100 μl) was prepared according to a previous study by precipitation with 500 μl of acetonitrile (Wissenbach et al., [2011]). The mixture was shaken and centrifuged (18,407 × g, 2 min). […]

[2] = tested on: monooxygenases; assay: Monooxygenases activity screening, summary over isozymes; format: in vitro ADME, human; conditions: single-enzyme incubations, 25 μM
Protocol: According to an established protocol (Wagmann et al., [2016]), the final volume per reaction tube was 50 μl with a final 4F-MDMB-BINACA concentration of 25 μM and enzyme concentrations of 50 pmol/ml for CYP1A2, CYP2A6, CYP2B6, CYP2C8, CYP2C9, CYP2C19, CYP2D6, CYP2E1, CYP3A4, and CYP3A5, respectively, or 0.25 mg protein/ml for FMO3. Furthermore, the reaction mixture contained 90 mM phosphate buffer (pH 7.4), superoxide dismutase (200 U/ml), isocitrate (5 mM), MgCl2 (5 mM), isocitrate dehydrogenase (0.5 U/ml), and NADP^+ (1.2 mM). The phosphate buffer was replaced with Tris buffer (90 mM) for incubations with CYP2A6 and CYP2C9 according to the manufacturer's recommendation. All incubations were performed at 37°C for 30 min and terminated by adding 50 μl of ice-cold acetonitrile. Afterwards, the mixtures were centrifuged at 18,407 × g for 5 min, 70 μl of the supernatants was transferred into autosampler vials, and 1 μl was injected onto the LC-HRMS/MS system. Positive control incubations were performed with pHLM (1 mg microsomal protein/ml), and negative controls without enzyme were prepared to identify non-metabolically formed compounds. All incubations were done in duplicate.

COC(=O)C(NC(=O)c1nn(CCCCF)c2ccccc12)C(C)(C)C (centres unmarked) [4F-MDMB-BINACA, methyl 2-[1-(4-fluorobutyl)-1H-indazole-3-carbonyl]amino-3,3-dimethylbutanoate]
Detectability of the parent compound in urine [1]: barely detectable | Monooxygenases involved in the metabolic phase I reactions [2]: CYP1A2, CYP2C8, CYP2C19, CYP3A4, and CYP3A5
